The conditions of data set [1]: in vivo; cited from earlier work.
Data set [2] concerns MCCL-357 and MCCL-278 cells. Nature of the data set: Karyotyping (chromosomal analysis). As to conditions: A771726, by 48 h; MCCL-357 compared to MCCL-278. It counts as cell-based, mouse. How it is done: (§1) FIG. 4A is a graph showing positively-stained cells labeled with a gamma-H2AX antibody; cells were analyzed by flow cytometry (Student's t-test, *p<0.05, n=3). […] The mean fluorescence intensity (MFI) was determined using flow cytometry (Student's t-test, *p<0.01, n=3). FIG. 4C is a series of representative photographs showing MEFs treated with 150 μM A771726 for 24 h and labeled with EdU and gamma-H2AX. Left: representative confocal microscopy images. Right: quantified EdU and gamma-H2AX colocalized foci (Student's t-test, *p<0.05, n=3). […] Left: representative confocal microscopy images. Right: quantification of the number of foci per cell (Student's t-test, p>0.05, n=6). FIG. 4E is a graph showing the percentage of cells treated with 150 μM A771726 for times indicated and labeled with antibodies to RPA and gamma-H2AX positively staining for RPA alone or both RPA and gamma-H2AX; cells were analyzed by flow cytometry (Student's t-test, *p<0.05, n=4). […] FIGS. 4G and 4H are graphs quantifying the number of chromosomal breaks and multiradial formations per haploid genome (Student's t-test, *p-values on figure, cells scored/replicate>100). […]
FIG. 10D is a bar graph showing a quantitative depiction of the percent cell area with EdU-staining from images in FIG. 4D, used to normalize foci to cell size (Student's t-test, p>0.05, not significant, n=6). […]

The next data set concerns PI3K signaling. Nature of the data set: Immunoblot of pAKT in Pten KO and WT cells. The format is cell-based. The settings on record: 50 μM A771726. On the procedure: Note that here as well as in FIG. 2, H-I, a large amount of DMSO was used in each condition to match the amount of orotate needed, narrowing the growth differential normally observed between leflunomide-treated and untreated cells in the PTEN mutant setting. FIG. 8B is a bar graph and immunoblot depicting cells transfected with siRNA against DHODH. The bar graph depicts cell viability measured using annexin V and 7AAD. 0.5 μg/mL actinomycin D was a positive control for cell death. (Students t-test, *p<0.05, n=3). […] FIG. 8C is an immunoblot of DHODH in Pten KO and WT cells. FIG. 8D is an immunoblot of pAKT in Pten KO and WT cells with or without treatment with 50 μM A771726. FIG. 8E and FIG. 8F are bar graphs depicting the GI50s of cells treated with dose titrations of 5-fluorouracil or mercaptopurine, respectively (Student's t-test, p>0.05, n=3). FIG. 8G depicts the confluence of prostate cells grown in media containing full glutamine (4 mM) or no added glutamine. Data shown as means±SD.
Samples were lysed in 2× Laemelli sample buffer with mercaptoethanol and were boiled before separation by SDS-PAGE on Tris-Glycine gels (Invitrogen EC60352). Wet-transfer to PVDF (Fisher ipvh00010) was followed by blocking for 1 hour in 10% nonfat milk (Fisher M-0841) in TBST. […]

The next data set addresses T1, CYP2C9 (Homo sapiens, UniProt P11712).
T1 construct: S-warfarin (a CYP2C9 substrate); host or cells: human subjects, in vivo
As to conditions: in vivo; cited from earlier work.

Another data set has as its target T2, CYP3A4 (Homo sapiens, UniProt P08684).
T2 construct: midazolam (a CYP3A4 substrate); host or cells: human subjects, in vivo
As to conditions: in vivo; cited from earlier work.

Data set [3] concerns MCCL-357 and MCCL-278 cells. Nature of the data set: RPA and gamma-H2AX co-staining by flow cytometry. The format is cell-based, mouse. On the procedure:
as §1
FIG. 10D is a bar graph showing a quantitative depiction of the percent cell area with EdU-staining from images in FIG. 4D, used to normalize foci to cell size (Student's t-test, p>0.05, not significant, n=6). […] Cells were treated with A771726 for times indicated and co-stained with antibodies to RPA and gamma-H2AX; cells were analyzed by flow cytometry (n=4). […] FIG. 10H is a bar graph showing a quantitative depiction of the percent of abnormal […] in MCCL-278 and MCCL-357 breast cells treated with 50 or 100 μM A771726 or vehicle (Student's t-test, *p<0.01). […] Pulverized chromosomes could not be quantified due to the very high number of fragments.
The FlowCellect™ Cell Cycle Checkpoint H2A.X DNA Damage Kit (Millipore FCCH12542) was used according to the instructions provided in the kit. […] (Propidium iodide was not used in this setting.) Fluorescence was measured on a Guava® flow cytometer.
(In general: In flow cytometry, cells or beads pass a laser one at a time.)

For a further data set, the target named is T3, albumin (Homo sapiens, UniProt P02768).
T3 construct: host or cells: human subjects (circulating albumin)
T3 sequence (P02768 25-609): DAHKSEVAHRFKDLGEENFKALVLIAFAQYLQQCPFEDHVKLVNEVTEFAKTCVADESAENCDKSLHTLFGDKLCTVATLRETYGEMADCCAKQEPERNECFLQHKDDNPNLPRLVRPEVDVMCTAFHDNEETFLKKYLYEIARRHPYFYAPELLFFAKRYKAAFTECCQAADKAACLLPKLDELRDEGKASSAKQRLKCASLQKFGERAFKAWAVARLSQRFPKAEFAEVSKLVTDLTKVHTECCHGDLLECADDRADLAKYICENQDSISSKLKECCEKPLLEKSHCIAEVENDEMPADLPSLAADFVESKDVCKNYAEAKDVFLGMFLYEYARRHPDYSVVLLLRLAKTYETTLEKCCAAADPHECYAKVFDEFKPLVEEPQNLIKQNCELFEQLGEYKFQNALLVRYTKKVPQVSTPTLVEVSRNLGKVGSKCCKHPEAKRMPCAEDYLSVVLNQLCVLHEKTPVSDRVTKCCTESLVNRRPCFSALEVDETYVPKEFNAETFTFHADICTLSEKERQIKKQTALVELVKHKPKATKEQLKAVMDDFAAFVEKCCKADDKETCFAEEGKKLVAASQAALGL
As to conditions: cited from earlier work.

Like-named read-outs stand apart in the source and are kept apart here.

The text below walks through data of patent US20250302817A1, “METHODS FOR TREATING PTEN-MUTANT TUMORS” (Icahn School of Medicine at Mount Sinai, priority 2016, published 2025).

T1 sequence (P11712 whole entry): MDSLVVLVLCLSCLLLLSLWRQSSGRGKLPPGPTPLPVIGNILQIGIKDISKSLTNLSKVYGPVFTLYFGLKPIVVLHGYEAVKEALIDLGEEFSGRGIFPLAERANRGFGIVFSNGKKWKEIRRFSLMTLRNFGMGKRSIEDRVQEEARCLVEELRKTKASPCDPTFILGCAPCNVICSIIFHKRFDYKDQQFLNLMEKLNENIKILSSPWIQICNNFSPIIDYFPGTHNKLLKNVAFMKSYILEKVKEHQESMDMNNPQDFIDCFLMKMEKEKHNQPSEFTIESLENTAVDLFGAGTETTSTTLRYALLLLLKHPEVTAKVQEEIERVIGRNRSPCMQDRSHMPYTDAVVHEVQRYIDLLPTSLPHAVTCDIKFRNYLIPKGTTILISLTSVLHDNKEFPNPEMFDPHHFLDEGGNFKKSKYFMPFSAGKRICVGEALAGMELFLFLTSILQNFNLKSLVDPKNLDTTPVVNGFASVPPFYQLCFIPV
T2 sequence (P08684 whole entry): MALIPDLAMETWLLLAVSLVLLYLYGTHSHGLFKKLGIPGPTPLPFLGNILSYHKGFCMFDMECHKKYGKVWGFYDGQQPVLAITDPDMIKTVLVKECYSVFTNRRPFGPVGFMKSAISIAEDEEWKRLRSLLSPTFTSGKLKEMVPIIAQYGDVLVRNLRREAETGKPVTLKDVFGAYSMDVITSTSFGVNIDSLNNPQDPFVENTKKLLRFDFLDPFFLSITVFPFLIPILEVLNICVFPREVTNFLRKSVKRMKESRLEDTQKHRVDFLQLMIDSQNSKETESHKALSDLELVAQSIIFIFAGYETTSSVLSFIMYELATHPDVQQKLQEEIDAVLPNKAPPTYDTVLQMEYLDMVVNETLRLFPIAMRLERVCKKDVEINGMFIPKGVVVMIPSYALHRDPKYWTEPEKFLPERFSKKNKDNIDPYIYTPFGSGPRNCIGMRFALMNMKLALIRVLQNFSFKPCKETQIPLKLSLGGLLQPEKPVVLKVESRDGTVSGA

Take `C/C(O)=C(\C#N)C(=O)Nc1ccc(C(F)(F)F)cc1` [teriflunomide, (Z)-2-Cyano-3-hydroxy-but-2-enoic acid-(4trifluoromethylphenyl)-amide]: the “effect of rifampin on the pharmacokinetics of teriflunomide” value in data set [1] is on record as “does not affect the pharmacokinetics”. Also, in data set [2], the “chromosome gaps, breaks, and multiradial formations” value is “greater number of chromosome gaps, breaks, and multiradial formations in MCCL-357 cells”. Moreover, the “effect on PI3K signaling (pAKT immunoblot)” value in the data set on PI3K signaling is reported as “did not affect PI3K signaling”. For the same molecule, the “effect on pharmacokinetics of S-warfarin (a CYP2C9 substrate)” value at CYP2C9 is reported as “does not affect the pharmacokinetics”. Also, the “effect on pharmacokinetics of midazolam (a CYP3A4 substrate)” value on CYP3A4 is reported as “does not affect the pharmacokinetics”. In data set [3] (150 μM A771726, time course), the “RPA and gamma-H2AX double-positive cells” value is “shift toward both RPA and gamma-H2AX-positive cells in Pten^−/− MCCL-357 but not in Pten WT MCCL-278 cells”. For the same molecule, the RPA signal entry in data set [3] (150 μM A771726, regardless of PTEN genotype) was “increase in RPA signal”. For the same molecule, the “gamma-H2AX in relation to RPA staining” value in data set [3] (MCCL-357 cells treated with A771726) is “appeared almost exclusively in RPA-positive MCCL-357 cells”. Besides, on albumin (healthy subjects), the bound to albumin is reported as > 99.3%. In addition, the figures for the “free fraction of teriflunomide” value on albumin (patients with chronic renal failure) and on albumin (patients with rheumatoid arthritis) were “approximately doubled” and “slightly higher”, respectively. On albumin (therapeutic concentrations), the protein binding linearity result was “linear”.
